We go through one compound from BindingDB's records for patent US12178809 (Boehringer Ingelheim International, 2024).

Structures are written as SMILES.

Assay [1] has as its target T1, Amine oxidase [copper-containing] 3 (Homo sapiens, UniProt Q16853).
T1 sequence (Q16853 whole entry): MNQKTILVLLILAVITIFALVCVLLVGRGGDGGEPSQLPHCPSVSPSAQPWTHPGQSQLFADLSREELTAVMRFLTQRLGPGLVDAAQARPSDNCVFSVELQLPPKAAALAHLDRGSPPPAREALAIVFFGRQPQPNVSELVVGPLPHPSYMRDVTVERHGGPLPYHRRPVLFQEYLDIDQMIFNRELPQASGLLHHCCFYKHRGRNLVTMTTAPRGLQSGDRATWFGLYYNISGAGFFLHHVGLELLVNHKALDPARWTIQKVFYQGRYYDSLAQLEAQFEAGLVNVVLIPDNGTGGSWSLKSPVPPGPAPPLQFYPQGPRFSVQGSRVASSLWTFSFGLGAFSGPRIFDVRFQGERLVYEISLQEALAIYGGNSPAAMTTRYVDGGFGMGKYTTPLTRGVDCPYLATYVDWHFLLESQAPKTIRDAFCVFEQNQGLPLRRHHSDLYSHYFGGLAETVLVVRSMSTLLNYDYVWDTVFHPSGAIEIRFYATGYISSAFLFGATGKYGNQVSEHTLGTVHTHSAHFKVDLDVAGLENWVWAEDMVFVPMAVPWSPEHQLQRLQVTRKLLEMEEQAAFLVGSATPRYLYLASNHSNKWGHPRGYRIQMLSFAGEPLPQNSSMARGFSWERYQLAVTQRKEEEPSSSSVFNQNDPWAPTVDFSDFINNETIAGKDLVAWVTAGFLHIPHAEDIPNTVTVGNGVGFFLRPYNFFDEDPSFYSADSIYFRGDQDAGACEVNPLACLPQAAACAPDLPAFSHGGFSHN
In words: AOC3 Biochemical Assay. As for the experimental part: Recombinant CHO cells, overexpressing the human (1500 cells/well), mouse (1000 cells/well) or rat (500 cells/well) AOC3 enzyme are diluted in reaction buffer and added in a volume of 15 μL to the wells. After incubation for 20 minutes at 37° C., 2 μL of MAO substrate (dissolved in DMSO at 16 mM, adjusted to assay concentration in reaction buffer to a final assay concentration of 20 μM) is added and further incubated for 60 minutes at 37° C. The turnover of the substrate is determined by the addition of 20 μL of the detection-mix which was generated by the addition of reconstitution buffer with esterase (PROMEGA, #V1402) to the luciferine detection reagent (PROMEGA, #V1402).

In assay [2] the target is T2, Amine oxidase [copper-containing] 2 (Homo sapiens, UniProt O75106).
T2 sequence (O75106 whole entry): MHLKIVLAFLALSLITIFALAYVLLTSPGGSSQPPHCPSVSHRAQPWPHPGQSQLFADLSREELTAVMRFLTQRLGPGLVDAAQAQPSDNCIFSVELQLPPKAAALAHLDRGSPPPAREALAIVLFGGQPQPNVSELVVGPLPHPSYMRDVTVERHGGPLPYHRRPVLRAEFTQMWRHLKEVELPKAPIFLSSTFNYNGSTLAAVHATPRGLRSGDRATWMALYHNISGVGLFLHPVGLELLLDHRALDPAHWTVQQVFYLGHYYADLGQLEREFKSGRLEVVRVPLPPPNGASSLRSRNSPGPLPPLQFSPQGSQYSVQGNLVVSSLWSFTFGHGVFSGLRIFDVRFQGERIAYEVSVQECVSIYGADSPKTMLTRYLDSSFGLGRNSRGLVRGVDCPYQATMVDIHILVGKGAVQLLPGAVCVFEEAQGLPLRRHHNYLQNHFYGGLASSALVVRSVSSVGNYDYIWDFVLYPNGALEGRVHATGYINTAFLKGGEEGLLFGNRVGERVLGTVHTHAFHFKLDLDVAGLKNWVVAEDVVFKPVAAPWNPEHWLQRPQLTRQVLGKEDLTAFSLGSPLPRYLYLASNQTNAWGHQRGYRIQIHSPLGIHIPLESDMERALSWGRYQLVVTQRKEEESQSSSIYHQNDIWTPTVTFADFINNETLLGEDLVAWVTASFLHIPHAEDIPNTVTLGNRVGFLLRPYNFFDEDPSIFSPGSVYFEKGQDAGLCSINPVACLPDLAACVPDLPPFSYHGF
In words: AOC2 Biochemical Assay. As for the experimental part: Cells are cultured for 3 days in EMEM culture medium containing 10% FCS (#04-00-1A, Biological Industries). After washing twice with ice cold PBS, cells are lysed by mechanic homogenation and cleared supernatants are shock frozen in liquid nitrogen and stored at −80° C.For the determination of AOC2 enzymatic activity cell lysates are thawed on ice and 1:1 diluted with reaction buffer. An Aliquot of 45 μL is added to the compound dilution and incubated for 30 min at 37° C.

Assay [3] deals with T3, Diamine oxidase [copper-containing] (Homo sapiens, UniProt P19801).
T3 sequence (P19801 whole entry): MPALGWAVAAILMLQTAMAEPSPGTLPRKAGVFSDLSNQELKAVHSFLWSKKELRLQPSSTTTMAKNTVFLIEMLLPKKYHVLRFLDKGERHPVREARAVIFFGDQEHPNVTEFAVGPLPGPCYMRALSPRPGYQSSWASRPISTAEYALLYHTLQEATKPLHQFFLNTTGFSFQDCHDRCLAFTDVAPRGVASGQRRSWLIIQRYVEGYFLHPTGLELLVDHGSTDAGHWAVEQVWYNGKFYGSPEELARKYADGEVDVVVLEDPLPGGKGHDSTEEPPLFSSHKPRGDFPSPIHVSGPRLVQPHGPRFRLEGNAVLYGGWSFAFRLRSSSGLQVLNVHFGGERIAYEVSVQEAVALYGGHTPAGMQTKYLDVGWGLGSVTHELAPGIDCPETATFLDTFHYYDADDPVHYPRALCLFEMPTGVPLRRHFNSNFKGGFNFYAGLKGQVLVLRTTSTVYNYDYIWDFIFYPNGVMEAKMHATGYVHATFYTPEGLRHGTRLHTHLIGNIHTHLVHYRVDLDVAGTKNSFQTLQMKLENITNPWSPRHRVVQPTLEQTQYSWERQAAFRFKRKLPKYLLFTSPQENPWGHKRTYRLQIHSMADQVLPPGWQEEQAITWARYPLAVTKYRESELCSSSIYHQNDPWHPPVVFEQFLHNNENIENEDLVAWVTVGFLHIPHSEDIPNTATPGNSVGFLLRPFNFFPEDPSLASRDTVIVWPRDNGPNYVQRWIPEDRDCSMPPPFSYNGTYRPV
The experiment in a line: AOC1 Biochemical Assay. As for the experimental part:
An aliquot of 3 μL of the compound dilution is added to a 384 well plate (Optiplate, PS, flat bottom F, black, PERKIN ELMER, #6007270) in a DMSO concentration of 6.6%.An AOC1 enzyme aliquot (#8297-AO-010, R&D Systems) is thawed on ice, diluted in reaction buffer and added in a volume of 7 μL to the wells to give a final assay concentration of 1 ng/well. After incubation of inhibitor and enzyme for 30 minutes at 37° C., the enzymatic reaction is started with the addition of 10 μL of Amplex Red reaction mix (final assay concentration: 100 mM sodiumphosphate, 120 μM Amplex Red reagent (#A22177 Molecular Probes), 1.5 U/mL Horseradish Peroxidase (#P8375 Sigma-Aldrich), 200 μM putrescine (#P7505 Sigma-Alrdich), 0.05% Pluronic F-127 (#P3000MP Sigma-Aldrich), pH 7.4, 37° C.).After an incubation for 30 minutes at 37° C. the turnover of the substrate is determined directly (or after the addition of an excess of an amine-oxidase inhibitor) with a fluorescence reader (Ex 540 nm/Em 590 nm) like Envision 2104 Multilabel Reader (PERKIN ELMER).

`CC(C)(O)NC(=O)[C@H]1CCN(S(=O)(=O)c2ccc(OC/C(=C/F)CN)nc2)C1` [US12178809, Example 05]: the IC50 in assay [1] is 73 nM; in assay [2], 629 nM; in assay [3], > 50000 nM.
